Results on 86 compounds are retold here after a melting point compilation (Tetko et al.; mined from patent text by program, amines drawn as free bases though some values may be those of a salt).

`COc1ccc(S(N)(=O)=O)cc1N=Nc1c(O)c(O)c(N=Nc2cc(S(N)(=O)=O)ccc2OC)c2ccccc12` came in with a melting point of 345 °C. Regarding `CC(=O)Cc1ccc(Oc2ccc(C(F)(F)F)cc2)cc1`, the melting point lay within 88 to 90 °C. The same measure for `FC(F)(F)c1cccc(-c2ccnc(S)n2)c1`: 200 to 205 °C; for `C=CCn1c(=O)c2[nH]c(/C=C/c3cc(OC)c(OC)c(OC)c3)nc2n(CC=C)c1=O`: 253 to 255 °C. Regarding `COc1ncccc1NC(=O)C1(O)CCCn2c1nc(-c1ccncn1)cc2=O` (racemic), the melting point was 208 to 210 °C. With `Nc1ccc(Oc2ccccc2Oc2ccc(N)cc2)cc1`, the melting point is 135 to 136 °C. As for `COc1ccc(C(=O)Cc2ccnc(NC(=O)c3ccccc3)c2)cc1`, the melting point fell in the range of 136 to 139 °C. The same measure for `Cc1cc(C#N)sc1-c1ccc2c(c1)C(C)(C)C(=O)N2`: 192 to 193 °C; for `CCn1c(C)nc(N2CCc3ccccc3CC2)c(C#N)c1=O`: 154 to 158 °C.

`CCc1nc2cc(S(C)(=O)=O)c(Cl)cc2n1-c1ccc(CCNC(=O)NS(=O)(=O)c2ccc(C)cc2)cc1`: the melting point is 105 to 118 °C.

Turning to `O=C(Nc1ccc2nc(S)[nH]c2c1)C(=O)N1CCC(Cc2ccccc2)CC1`, the melting point was 277 to 281 °C. Consider `CCCCn1cc(N)c(=O)c2cnc(-c3ccncc3)nc21`, for which the melting point was 195 to 196 °C. Compound `COc1cc(CN2CCN(c3ccc(C(=O)NC4CC4)cc3F)CC2)cc2c1OC(C)C(=O)N2` (stereo unspecified) yielded a melting point of 233 °C.

`OCc1ccc2cccc3c2c1-c1ccccc1-3` showed a melting point of 147 to 185 °C. For `Oc1ncnc2c(-c3ccc(Cc4ccc(Cl)cc4)cc3)cnn12` the value was 292 to 296 °C.

Take `COc1cc(C)cc(-c2n[nH]cc2-c2cc(NC[C@H](C)O)nc(Cl)n2)c1`: the melting point was 256 °C. On to `CCN(CC)C(=O)OC12C(=O)c3ccccc3C1(O)Oc1cc(C(C)C)ccc12` (stereo unspecified), for which the melting point is 101 to 104 °C. `CCCCCCCOc1ccc(CCC(CO)(CCO)NC(=O)c2cc([N+](=O)[O-])cc([N+](=O)[O-])c2)cc1` (single isomer, unassigned; (+)) showed a melting point of 78 to 79 °C. As to `Cc1nc(Cn2c(=O)sc3cc(F)c(N)cc32)no1`, the melting point is 156 to 157 °C. Turning to `Cc1cn2c(n1)Cc1ccccc1NC2=O`, the melting point fell in the range of 234 to 236 °C. Regarding `COc1ccc(CN(C)C(=O)CCCOc2ccc3c(c2)CN2CC(=O)NC2=N3)cc1`, the melting point was in the range of 256 to 258 °C. Compound `CC1NC(=O)NN=C1c1ccc2c(c1)CCC(=O)N2C` (stereo unspecified) returned a melting point of 240 to 242 °C. For `COc1ccc(-c2cc3ccccc3n2C(C)=O)cc1`, the melting point lay in the range of 68 to 71 °C. Regarding `Cc1[nH]c2ccc(CCO)cc2c1C(=O)OCc1ccccc1`, the melting point lay in the range of 170 to 172 °C. Take `COC(=O)c1ccccc1-c1noc(-c2ccc(OC)cc2)n1`: the melting point was 73 to 75 °C. For the compound `C=CC(=O)OCCCC#Cc1ccc(C(F)(F)Oc2ccc(OC(F)(F)c3ccc(C#CCCCOC(=O)C=C)cc3)c(C)c2)cc1`, the melting point is 51 °C. Turning to `O=C(O)c1cn(C2CC2)c2c(F)c(N3CCC(=NO)C3)c(F)c(F)c2c1=O`, the melting point was found to be 300 °C. On to `CC1(C)OC[C@H](CON2C(=O)c3ccccc3C2=O)O1`, for which the melting point was 100 to 102 °C. As to `Cc1nc2c(N)nc3c(c2n1CC(C)C)CCNC3`, the melting point lay within 226 to 230 °C. Turning to `CCOC(=O)CCc1cn(Cc2ccc(OCc3coc(-c4ccccc4)n3)cc2)nc1OCC`, the melting point fell in the range of 80 to 81 °C. For `CC(C)(CO)CCCCC(O)CCCCC(C)(C)CO` the value was 72 to 74 °C; for `O=C(NCc1ccccn1)Nc1cc(-n2c(=O)n(-c3ccccc3)c3ccccc32)ccn1`, 231 to 232 °C. The compound `CCN1C2=C(C(=O)Nc3ccccc3F)C(=O)CCN2c2ccccc21` returned a melting point of 142 to 143 °C. Compound `COC(=O)c1c(N)ncn1C1c2ccccc2CC1(C)C` (stereo unspecified) returned a melting point of 100 to 105 °C. `O=[N+]([O-])c1ccc(-c2ccc(S(=O)c3ccc(Cl)c([N+](=O)[O-])c3)cc2)cc1` (stereo unspecified) displayed a melting point of 220 to 222 °C. For `CCOc1ccc(Nc2ncccc2NS(=O)(=O)c2ccc(OC)cc2)cc1`, the melting point lay in the range of 144 to 146 °C. In turn, `CSc1ncc2cc(-c3c(Cl)cccc3Cl)c(=NC(C)=O)n(C)c2n1` had a melting point of 229 to 231 °C. The compound `Cn1cc(Oc2ccc(Cl)cc2Cl)c(=O)c(-c2cccc(C(F)(F)F)c2)c1` registered a melting point of 129 to 130 °C.

For the compound `CCOC(=O)c1cc(O)c2cc3c(O)cc(C(=O)OCC)nc3c(N(CC)CC)c2n1`, the melting point was in the range of 267 to 268 °C. `COc1ccc(CN(C)CCc2ccc(NC(=O)c3cccc(C(=O)c4ccccc4)c3)cc2)cc1OC` registered a melting point of 130 °C.

`COC(=O)c1c(Cl)c(Cl)c(Cl)c(Cl)c1C#N`: the melting point lay within 82 to 83 °C. For `COc1cc(OCc2ccccn2)c(C=CC(=O)c2ccc(S(N)(=O)=O)cc2)cc1-c1cccs1`, the melting point was 188 to 189 °C. As to `O=CNc1ccccc1CNC1CCC(=O)NC1=O` (stereo unspecified), the melting point lay in the range of 169 to 174 °C. The same measure for `Cc1ccc2nc(SCc3ccccn3)n(-c3ccccc3)c(=O)c2c1`: 167 to 169 °C; for `CCOC(=O)c1nc(-c2cccc(C)c2)cn1C`: 176 to 177 °C; for `Cc1ccc(-n2nccc2-c2nn(-c3cccc(C(F)(F)F)c3)ccc2=O)cc1`: 164 to 165 °C. `CC(C)(O)Cn1c(CO)nc2c(N)nc3cc(CCS(C)(=O)=O)ccc3c21` had a melting point of 221 to 223 °C. `C=CCn1c(-c2c(Cl)cccc2Cl)nc(-c2ccncc2)c1-c1ccc(C)cc1` yielded a melting point of 147 to 149 °C. In turn, `O=C(O)Cc1coc2cc(OCc3cccc(OCc4ccc(C(F)(F)F)cc4)c3)ccc12` gave a melting point of 155 to 157 °C. Compound `Cc1cccc(C(=O)Nc2c(C(O)(C(F)(F)F)C(F)(F)F)ccc3ccccc23)c1` gave a melting point of 167 to 168 °C. Turning to `COc1cc(Nc2nccc(-c3cccc(NC(=O)c4cc(C)on4)c3)n2)cc(OC)c1OC`, the melting point was 173 to 175 °C. For `O=C(Nc1cccc(S(=O)(=O)N2CCCC2)c1)c1cnn2c(C(F)(F)F)cc(-c3ccc(Cl)c(Cl)c3)nc12` the value was 280 °C; for `O=C1CCCC2=C1C(c1ccc(Cl)cc1)C1=C(CCCC1)N2` (stereo unspecified), 253 to 254 °C.

`CC(=O)ON=C(O)c1cc(C(O)=NCCO)c(C(=O)O)cc1C(=O)O`: the melting point is 194 to 195 °C. The same measure for `COC(=O)CCCc1cc2nc(Cl)ccc2n1S(=O)(=O)c1ccc(C(F)(F)F)cc1`: 99 °C; for `CN1C(=O)C(NC(=O)c2cc3ccccc3[nH]2)C(=O)N(c2ccccc2)c2cc(Cl)ccc21` (stereo unspecified): 280 °C; for `N#Cc1cnc2cnc(F)cc2c1Nc1ccc(Oc2ccccc2)cc1`: 211 to 213 °C. Compound `Cc1noc(C2CCCCC2=O)n1` (stereo unspecified) displayed a melting point of 74 to 76 °C. For `CCOC(=O)COc1cc2c(c(Cl)c1Cl)C(=O)C(C)(C(C)C)C2` (stereo unspecified) the value was 113 °C. The same measure for `Cc1ccn2c(C)c(CCc3ccc4nc(N(C)C)oc4c3)nc2c1`: 67 to 69 °C; for `Cc1ccc(-c2nn3cccnc3c2CC(=O)O)cc1`: 170 to 171 °C.

`CCC(OC(C)=O)C(=O)Nc1ccc(I)cc1Cl` (stereo unspecified) had a melting point of 156 to 158 °C. On to `CC(=O)COc1ccc(/C=C/C(=O)O)c(Oc2ncc(C(F)(F)F)cc2Cl)c1`, for which the melting point lay in the range of 179 to 180 °C.

`CC(=O)OCCn1ncc(-c2ncc([N+](=O)[O-])n2C)c1C`: the melting point was 79 °C. For `CC(=O)C(=Cc1c(-c2ccccc2)nc2sc(C)nn12)C(=O)N(C)C`, the melting point lay in the range of 185 to 187 °C. For the compound `CNC(=O)NCCCCc1cccc(OC)c1`, the melting point is 74 to 75.5 °C.

Compound `CC1(C)OC(=S)Nc2ccc(-c3cc(Cl)cc(Cl)c3)cc21` came in with a melting point of 206 to 208 °C.

`Cc1nn(CCc2ccccc2)cc1C(=O)Nc1ccc(N2CCC(N3CCOCC3)CC2)c(C#N)c1` returned a melting point of 188 °C. Compound `CCOC(=O)C1=Cc2cc(N)ccc2OC1C(F)(F)F` (stereo unspecified) yielded a melting point of 111 to 115 °C. Consider `O=C1CC=C2c3ccc(Cl)cc3CCC2N1` (stereo unspecified), for which the melting point was 241 to 243 °C.

Compound `CC(=O)OC1CSC(Br)C(OC(C)=O)C1OC(C)=O` (stereo unspecified) returned a melting point of 175 °C. As for `CC(=O)OC1CC2(C)C(CCC23OCCO3)C2CC=C3CC(O)CCC3(C)C12` (stereo unspecified), the melting point is 125 to 126 °C. For `Cc1cccc(NCCC#N)c1C` the value was 65.5 to 67 °C; for `CNC(=O)[C@@H]1C=CCN1C(=O)OC(C)(C)C`, 47 to 48 °C. Compound `CCOC(=O)c1c(C(F)(F)F)nc(C(F)F)c(C(=O)OC)c1C1CO1` (stereo unspecified) showed a melting point of 57.5 to 59 °C. The compound `N#Cc1ccc(S(F)(F)(F)(F)F)cc1[N+](=O)[O-]` showed a melting point of 57 to 59 °C.

Take `O=C(O)c1ccc(-c2cnc3c(c2)N(Cc2ccccc2)C(=O)CN3)cc1`: the melting point is greater than 200 °C. `O=c1nc(-c2cccc(-c3cccs3)n2)sc2ccccc12` had a melting point of 222 to 223 °C. For `O=C1CCC2(Cc3ccc(Br)cc3)C(=O)N(c3cc(Cl)cc(Cl)c3)C(=O)N12` (stereo unspecified) the value was 230 °C; for `COCOc1cc(COc2nn(Cc3ccccc3)cc2CO)ccc1OCc1nc(-c2ccco2)oc1C`, 98 to 99 °C; for `O=C(Nc1cnc2[nH]ccc2c1)c1cc2cc(F)ccc2n1Cc1cccc(F)c1`, 266 to 267 °C. Compound `CCOC(=O)C(=O)Nc1cccc(N(C)C)c1C#N` showed a melting point of 124 to 126 °C. For `Cc1nc2ccc(NCCCN3CCC(OC(c4ccccc4)c4ccccc4)CC3)nn2n1` the value was 119 to 120 °C; for `COc1ccc(Cl)n2nc(S(=O)(=O)Nc3c(F)cccc3F)nc12`, 190 to 191 °C. In the case of `Cc1cc(-c2cnn3c(C(F)F)cc(-c4ccc(C(F)(F)F)c(C)c4)nc23)ccn1`, the melting point was determined as 221 °C.

The compound `O=C(CBr)c1ccc(Sc2ccccc2)cc1` had a melting point of 46 °C.
